In patent US20230101768A1, “METHOD TO TREAT MANGANESE TOXICITY AND MANGANESE-INDUCED PA[…] HUMANS” (priority 2021, published 2023):

Key:
HIF1α = format: cell-based, human
Source text: (§1) qRT-PCR analyses in HepG2 cells stably infected with scramble shRNAs or shRNAs targeting HIF1α, HIF2α, HIF1β/ARNT or HIF1α+HIF2α. Expression in respective scramble shRNA control cells was normalized to 1. Scramble shRNA sequence 1 was used for the HIF1α shRNA assay (single knockdown). Scramble shRNA sequence 2 was used for the other experiments, including HIF1α+HIF2α double knockdown. N=3-4. Except HIF1β/ARNT shRNAs, p<0.05 by t-test in comparison with respective scramble shRNA. […] N.S.—not significant.
(§2) ShRNA sequences targeting HIF1α, HIF2α, or HIF1β/ARNT (Table 3) were obtained from the MISSION® TRC shRNA library (Sigma) or were previously described (103). Scramble shRNA sequence 1 was from the MISSION® TRC shRNA library while scramble shRNA sequence 2 (Table 3) has been previously reported (104). These sequences were sub-cloned into the lentivirus transfer plasmid pLKO.1 vector (Addgene #8453).
(§3) Lentiviral infections. Stable cells were generated by lentivirus infection essentially as described by us previously (49, 98). Briefly, lentivirus was produced in HEK293T cells by co-transfecting transfer plasmids described above with plasmids coding for a third generation packing system that is routinely used (pRSV-Rev, pRRE, and pCMV-VSVG) (49, 98). Viral supernatants were collected 40-48 h post-transfection. […]
(§4) Quantitative RT-PCR assays.

HIF2α = format: cell-based, human
Source text: as §1, §2, §3, §4

SLC30A10 = format: cell-based; details: primary human hepatocytes, 250 μM manganese for 4 h
Protocol: (§5) (A) and (B): qRT-PCR assays in cells treated with or without 10 μM LW6 for 1 h followed by 0 or 250 μM manganese for 4 h (A) or with or without 20 μM roxadustat or 80 μM vadadustat for 16 h (B). […] For (B), expression in the absence of drug treatment was normalized to 1. N=3. Mean±SE. *P<0.05 by t-test (A) or one-way ANOVA and Dunnett's post hoc test for the comparison between no drug and other conditions (B).
(§6) Cell culture. HepG2 cells were grown in Eagle's modified essential medium (MEM; Corning) with 10% fetal bovine serum (Atlanta Biologicals), 100 IU/ml penicillin (Corning), and 100 μg/ml streptomycin (Corning). 293T cells were maintained in Dulbecco's modified essential medium/F12 (Thermo) supplemented with 10% fetal bovine serum, penicillin (100 IU/ml), and streptomycin (100 μg/ml). Human primary hepatocytes were purchased from XenoTech (catalog #HPCH10+) and cultured according to protocols provided by the supplier.
(§7) manganese and drug treatments in cell culture. Cells were treated with indicated levels of manganese as manganeseCl2.4H2O (Fisher). Vehicle for manganese treatment was water. Prolyl hydroxylase inhibitors roxadustat (Caymen), vadadustat, and molidustat (both APE-Bio); the HIFα inhibitor LW6 (Selleckchem); the proteasomal inhibitor MG132 (Sigma); and the transcription inhibitor actinomycin D (Sigma) were dissolved in DMSO. […] Vehicle treatment for all drugs was DMSO.
(§8) Quantitative RT-PCR assays. RNA extraction from HepG2 cells and mouse tissue, reverse transcription to cDNA, and qRT-PCR analyses were performed as described by us previously (47, 50). For analyses of mouse brain samples, a part of the midbrain, including the basal ganglia, was used. Transcript levels were quantified using the ΔΔCT method with 18S (in mice) or TBP (in HepG2 cells) as the internal control, also as described by us previously (47, 50).

VEGF = format: cell-based; details: primary human hepatocytes, 250 μM manganese for 4 h
Protocol: as §5, §6, §7, §8

SLC39A14 = details: oral manganese ~15 mg/kg daily from birth until 8 weeks
Protocol: (§9) A well-characterized drinking water-based manganese exposure regimen was used to model human environmental manganese exposure by providing mice with ˜50 mg manganeseCl2.4H2O/kg body weight daily (˜15 mg absolute manganese/kg per day) from birth until 8 weeks of age. This, and related similar, dosing regimens: 1) approximate the increase in manganese exposure in humans consuming well water contaminated with 1.5 mg manganese/L, which is the median well water concentration associated with neurological deficits in children; 2) increase brain manganese levels by ˜2-3 fold, similar to human patients; 3) produce measurable neurobehavioral deficits without overt toxicity; and 4) model exposure to manganese in developmentally-sensitive early-life and adolescent periods (11). Pre-weaning manganese was delivered by pipette directly into the mouth, and post-weaning manganese was delivered in drinking water using procedures described in detail in ref. (11). In brief, pre-weaning dosing was adjusted to each animal's body weight. For this, a stock solution of 69.2 mg absolute manganese/ml prepared in milliQ water was diluted in milliQ water containing 2.5% (wt/vol) of the natural sweetener Stevia (to facilitate intake by pups), and the required manganese amount (0.2 μl manganese stock/g body weight) was delivered in a dose of ˜5-10 μl/animal. For post-weaning exposure, a 27.7 mg absolute manganese/ml stock solution was prepared in water and diluted to 0.069 mg absolute manganese/ml in drinking water, which provided mice with ˜15 mg absolute manganese/kg per day based on a daily water intake of ˜2-5 ml/mouse depending on age.
(§10) Animals were euthanized using carbon dioxide and tissue dissected for qRT-PCR or ICPMS analyses as described by us previously (50).
as §8

SLC39A8 = details: oral manganese ~15 mg/kg daily from birth until 8 weeks
Protocol: as §9, §10, §8

[1] = test system: prolyl hydroxylase domain 2 (PHD2); details: HepG2 cells, 250 μM manganese
Protocol: as §8

Compound: O.O.O.O.[Cl][Mn][Cl] [manganese, manganeseCl2.4H2O]
- HIF1α mRNA levels after manganese (HIF1α): not elevated
- HIF2α mRNA levels after manganese (HIF2α): not elevated
- SLC30A10 expression after manganese (SLC30A10): increased
- VEGF expression after manganese (VEGF): increased
- Hepatic and brain SLC39A14 levels (SLC39A14; 129S4/SvJaeJ mice): elevated
- Intestinal SLC39A14 levels (SLC39A14; C57BL/6J mice): enhanced
- Hepatic and brain SLC39A8 levels (SLC39A8; 129S4/SvJaeJ mice): elevated
- Intestinal SLC39A8 levels (SLC39A8; either strain): did not change
- PHD2 levels in manganese-treated cells [1]: elevated
